# Assays:
# [1] = tested on: Breast Cancer subpanel; test: cells
# Method: (§1) At the first stage of biological activity study, the antitumor activity screening of the selected compounds 2b, 2c, 2f, 2h, and 2j was performed according to the NCI DTP (USA) standard protocol at the concentrations ranging from 10^−4 to 10^−8 M toward 60 tumor cell lines. The percentage of growth was evaluated spectrophotometrically versus controls not treated with test agents after 48 h exposure and using SRB protein assay to estimate cell viability or growth. Dose–response parameters were calculated for each cell line: GI50—molar concentration of the compound that inhibits 50% net cell growth; TGI—molar concentration of the compound leading to the total inhibition; and LC50—molar concentration of the compound leading to 50% net cell death. Furthermore, mean graph midpoints (MG_MID) were calculated for each of the parameters, giving an average activity parameter over all cell lines for the tested compound. For the MG_MID calculation, insensitive cell lines were included with the highest concentration tested.
# (§2) The selectivity index (SI) obtained by dividing the full panel MG-MID (mM) of the tested compound by their individual subpanel MG-MID (mM) was considered as a measure of selectivity of anticancer activity (Table 3).
# (§3) Primary anticancer assay was performed on a panel of approximately sixty human tumor cell lines derived from nine neoplastic diseases, in accordance with the protocol of the Drug Evaluation Branch, National Cancer Institute, Bethesda. Tested compounds were added to the culture at a single concentration (10^−5 M) and the cultures were incubated for 48 h. End point determinations were made with a protein binding dye, sulforhodamine B (SRB). […] The percentage growth was evaluated spectrophotometrically versus controls not treated with test agents.
# (§4) Dose–response parameters (GI50, TGI, LC50) were calculated for each compound. […] The drug concentration resulting in total growth inhibition (TGI) was calculated from Ti = Tz. The LC50 (concentration of drug resulting in a 50% reduction in the measured protein at the end of the drug treatment as compared to that at the beginning) indicating a net loss of cells following treatment was calculated from [(Ti − Tz)/Tz] × 100 = −50 (2). Values were calculated for each of these parameters if the level of activity was reached; however, if the effect was not reached or was excessive, the value for that parameter was expressed as more or less than the maximum or minimum concentration tested.
# [2] = tested on: CNS Cancer subpanel; test: cells
# Method: as §1, §2, §3, §4
# [3] = tested on: Colon Cancer subpanel; test: cells
# Method: as §1, §2, §3, §4
# [4] = tested on: Leukemia subpanel; test: cells
# Method: as §1, §2, §3, §4
# [5] = tested on: Melanoma subpanel; test: cells
# Method: as §1, §2, §3, §4
# [6] = tested on: Non-Small Cell Lung Cancer subpanel; test: cells
# Method: as §1, §2, §3, §4
# [7] = tested on: Ovarian Cancer subpanel; test: cells
# Method: as §1, §2, §3, §4
# [8] = tested on: Prostate Cancer subpanel; test: cells
# Method: as §1, §2, §3, §4
# [9] = tested on: Renal Cancer subpanel; test: cells
# Method: as §1, §2, §3, §4
# [10] = tested on: 60 tumor cell lines; test: NCI60 full panel MG_MID
# Method: as §1, §3, §4
# [11] = tested on: K-562
# [12] = tested on: A549/ATCC; details: A549/ATCC (Non-Small Cell Lung Cancer), 48 h, SRB
# [13] = tested on: NCI-H23; details: NCI-H23 (Non-Small Cell Lung Cancer), 48 h, SRB
# [14] = tested on: HCT-116; details: HCT-116 (Colon Cancer), 48 h, SRB
# [15] = tested on: 786-0; details: 786-0 (Renal Cancer), 48 h, SRB
# [16] = tested on: LOX IMVI; test: cells; details: Homo sapiens, 48 h
# [17] = tested on: NCI-322M; test: NCI DTP 60 cell line screen, SRB; details: 48 h
# [18] = tested on: HCT-15; test: NCI DTP 60 cell line screen, SRB
# [19] = tested on: M14; test: NCI DTP 60 cell line screen, SRB
# [20] = tested on: SK-OV-3; test: NCI DTP 60 cell line screen, SRB
# [21] = Homo sapiens, read-out: MG_MID, GI50
# [22] = Homo sapiens, read-out: MG_MID, LC50
# [23] = full panel MG_MID / Breast Cancer subpanel MG_MID
# [24] = full panel MG_MID / CNS Cancer subpanel MG_MID
# [25] = full panel MG_MID / Colon Cancer subpanel MG_MID
# [26] = full panel MG_MID / Leukemia subpanel MG_MID
# [27] = full panel MG_MID / Melanoma subpanel MG_MID
# [28] = full panel MG_MID / Non-Small Cell Lung Cancer subpanel MG_MID
# [29] = full panel MG_MID / Ovarian Cancer subpanel MG_MID
# [30] = full panel MG_MID / Prostate Cancer subpanel MG_MID
# [31] = full panel MG_MID / Renal Cancer subpanel MG_MID
smiles,measurement,setting,value
"O=C1/C(=C/C(Cl)=C/c2ccc([N+](=O)[O-])cc2)SC(=S)N1c1ccc(O)cc1 [Compound 2f, 5-[(Z,2Z)-2-Chloro-3-(4-nitrophenyl)-2-propenylidene]-3-(4-hydroxyphenyl)-2-thioxo-4-thiazolidinone]","MG_MID, TGI",[1]; Breast Cancer panel mean,11.6 µM
same,GI50,[1]; [21],1.89 µM
same,CC50,[1]; [22],98.7 µM
same,"SI (selectivity index), GI50",[1]; [23],1.48
same,"SI (selectivity index), LC50",[1]; [23],0.82
same,"SI (selectivity index), TGI",[1]; [23],2.78
same,"MG_MID, TGI",[2]; CNS Cancer panel mean,30.6 µM
same,GI50,[2]; [21],6.72 µM
same,CC50,[2]; [22],77.4 µM
same,"SI (selectivity index), GI50",[2]; [24],0.42
same,"SI (selectivity index), LC50",[2]; [24],1.04
same,"SI (selectivity index), TGI",[2]; [24],1.05
same,"MG_MID, TGI",[3]; Colon Cancer panel mean,67.4 µM
same,GI50,[3]; [21],1.84 µM
same,CC50,[3]; [22],84.5 µM
same,"SI (selectivity index), GI50",[3]; [25],1.52
same,"SI (selectivity index), LC50",[3]; [25],0.96
same,"SI (selectivity index), TGI",[3]; [25],0.48
same,TI (Therapeutic Index),[4]; GI50 (normal blood lymphocyte)/GI50 (Leukemia Panel),>353.36
same,GI50,[4]; [21],0.283 µM
same,CC50,[4]; [22],> 100 µM
same,"MG_MID, TGI",[4]; Leukemia panel mean,41.0 µM
same,"SI (selectivity index), GI50",[4]; [26],9.89
same,"SI (selectivity index), LC50",[4]; [26],<0.81
same,"SI (selectivity index), TGI",[4]; [26],0.78
same,GI50,[5]; [21],2.63 µM
same,CC50,[5]; [22],52.3 µM
same,"MG_MID, TGI",[5]; Melanoma panel mean,14.4 µM
same,"SI (selectivity index), GI50",[5]; [27],1.06
same,"SI (selectivity index), LC50",[5]; [27],1.54
same,"SI (selectivity index), TGI",[5]; [27],2.23
same,GI50,[6]; [21],2.93 µM
same,CC50,[6]; [22],74 µM
same,"MG_MID, TGI",[6]; Non-Small Cell Lung Cancer panel mean,26.6 µM
same,"SI (selectivity index), GI50",[6]; [28],0.96
same,"SI (selectivity index), LC50",[6]; [28],1.09
same,"SI (selectivity index), TGI",[6]; [28],1.21
same,GI50,[7]; [21],3.32 µM
same,CC50,[7]; [22],> 100 µM
same,"MG_MID, TGI",[7]; Ovarian Cancer panel mean,42.5 µM
same,"SI (selectivity index), GI50",[7]; [29],0.84
same,"SI (selectivity index), LC50",[7]; [29],<0.81
same,"SI (selectivity index), TGI",[7]; [29],0.76
same,GI50,[8]; [21],1.48 µM
same,CC50,[8]; [22],75.1 µM
same,"SI (selectivity index), GI50",[8]; [30],1.89
same,"SI (selectivity index), LC50",[8]; [30],1.08
same,"SI (selectivity index), TGI",[8]; [30],0.71
same,GI50,[9]; [21],2.85 µM
same,CC50,[9]; [22],69.1 µM
same,"MG_MID, TGI",[9]; Renal Cancer panel mean,24.1 µM
same,"SI (selectivity index), GI50",[9]; [31],0.98
same,"SI (selectivity index), LC50",[9]; [31],1.17
same,"SI (selectivity index), TGI",[9]; [31],1.34
same,GI50,"[10]; Homo sapiens, read-out: 60 lines MG_MID, GI50",2.8 µM
same,CC50,"[10]; Homo sapiens, read-out: 60 lines MG_MID, LC50",80.8 µM
same,"60 lines MG_MID, TGI",[10]; mean over all cell lines,32.3 µM
same,TI (Therapeutic Index),[11]; GI50 (normal blood lymphocyte)/GI50 (K-562),>191.94
same,TGI,"[11]; K-562 (Leukemia), 48 h, SRB",> 100 µM
same,TGI,[12],6.47 µM
same,TGI,[13],3.11 µM
same,TGI,[14],2.96 µM
same,TGI,[15],3.83 µM
same,GI50,[16],1.17 µM
same,CC50,[16]; read-out: LC50,> 100 µM
same,GI50,"[17]; Homo sapiens, NCI-322M",2.49 µM
same,CC50,"[17]; Homo sapiens, NCI-322M, read-out: LC50",> 100 µM
same,TGI,"[17]; NCI-322M (Non-Small Cell Lung Cancer), SRB",9.02 µM
same,TGI,"[18]; HCT-15 (Colon Cancer), 48 h, SRB",> 100 µM
same,GI50,"[18]; Homo sapiens, HCT-15, 48 h",0.409 µM
same,CC50,"[18]; Homo sapiens, HCT-15, 48 h, read-out: LC50",> 100 µM
same,GI50,"[19]; Homo sapiens, M14, 48 h",1.9 µM
same,CC50,"[19]; Homo sapiens, M14, 48 h, read-out: LC50",7.32 µM
same,TGI,"[19]; M14 (Melanoma), 48 h, SRB",3.73 µM
same,GI50,"[20]; Homo sapiens, SK-OV-3, 48 h",10.2 µM
same,CC50,"[20]; Homo sapiens, SK-OV-3, 48 h, read-out: LC50",> 100 µM
same,TGI,"[20]; SK-OV-3 (Ovarian Cancer), 48 h, SRB",41.5 µM

# Source: article PMC8161026, “Synthesis and Anticancer Activity Evaluation of 5-[2-Chloro-3-(4-nitrophenyl)-2-propenylidene]-4-thiazolidinones” (Molecules, 2021)
